SMILES strings stand for the structures. The source made the active and inactive calls. The rule behind the calls is not given here.

The values that follow come from ChEMBL document CHEMBL4840321, “Limonoids with Diverse Oxidation Patterns of C-12 Indicating a Complete Ring C-seco Biogenetic Pathway from Munronia unifoliolata” (J Nat Prod, 2021).

The subject of series [1] is RAW264.7. Kind of series: Inhibition of NO production in LPS-stimulated mouse RAW264.7 cells. Format: functional, cell-based.
Series [2] is described as follows: Cytotoxicity against human MCF7-DOX cells measured after 48 hrs by MTT assay. Format: cell-based.
Series [3] in a line: Anti-MDR activity in human MCF7-DOX cells assessed as reversal of cell resistance to doxorubicin by measuring reversal fold at 10 uM measured after 48 hrs by MTT assay. Format: functional.
Series [4] is described as follows: Anti-MDR activity in human MCF7-DOX cells assessed as reversal of cell resistance to doxorubicin by measuring reversal fold at 30 uM measured after 48 hrs by MTT assay. The format is functional.

With `CC(=O)OCC[C@H]1[C@]2(C)C3=C(C)[C@H](c4ccoc4)C[C@H]3O[C@@H]2[C@@H]2OC[C@]3(C)[C@H](OC(C)=O)C[C@H](OC(C)=O)[C@@]1(C)[C@@H]23`, in series [1], the inhibition result is “inactive”. In addition, in series [2], the Activity entry was “Non-Toxic”.

Turning to `C/C=C(\C)C(=O)O[C@H]1C[C@@H](OC(C)=O)[C@@]2(C)CO[C@H]3[C@H]4O[C@]5(C)[C@H]6C[C@H](O[C@@H]7O[C@@H](OC)C[C@@]76O)[C@]5(O)[C@@]4(C)[C@H](C(=O)CO)[C@]1(C)[C@@H]32`, the inhibition entry in series [1] is “inactive”. For the same compound, the Activity entry in series [2] is given as “Non-Toxic”.

In the case of `C/C=C(\C)C(=O)O[C@H]1C[C@@H](OC(C)=O)[C@@]2(C)CO[C@H]3[C@@H](O)[C@@]4(C)C5=C(C)[C@H](c6ccoc6)C[C@@H]5O[C@@H](O)C[C@@H]4[C@]1(C)[C@@H]32`, the inhibition result in series [1] is “inactive”. The Activity entry in series [2] is recorded as “Non-Toxic”.

Turning to `C/C=C(\C)C(=O)O[C@H]1C[C@@H](OC(C)=O)[C@@]2(C)CO[C@H]3[C@@H](O)[C@@](C)(C4=C(C)[C@H](c5ccoc5)CC4=O)[C@H](C(=O)CO)[C@]1(C)[C@@H]32`, the inhibition entry in series [1] is “inactive”. Moreover, the Activity result in series [2] was “Non-Toxic”.

Turning to `C/C=C(\C)C(=O)O[C@H]1C[C@@H](OC(C)=O)[C@@]2(C)CO[C@H]3[C@@H](O)[C@@]4(C)C5=C(C)[C@H](c6ccoc6)C[C@@H]5O[C@@H](OC)C[C@@H]4[C@]1(C)[C@@H]32`, the inhibition entry in series [1] was “inactive”. The Activity result in series [2] is “Non-Toxic”.

As to `C/C=C(\C)C(=O)O[C@H]1C[C@@H](OC(C)=O)[C@@]2(C)CO[C@H]3[C@@H](O)[C@@]4(C)C5=C(C)[C@H](c6ccoc6)C[C@@H]5OCC[C@@H]4[C@]1(C)[C@@H]32`, the “fold change (FC)” value in series [3] was 2.7; in series [4] it was 5.2. The inhibition entry in series [1] was “inactive”. Moreover, the Activity entry in series [2] was “Non-Toxic”.

For `C/C=C(\C)C(=O)O[C@H]1C[C@@H](OC(C)=O)[C@@]2(C)CO[C@H]3[C@@H](O)[C@@]4(C)C5=C(C)[C@H](C6=CCOC6=O)C[C@@H]5OCC[C@@H]4[C@]1(C)[C@@H]32`, the inhibition result in series [1] was “inactive”. Moreover, the Activity result in series [2] is “Non-Toxic”.

Turning to `CO[C@H]1C[C@H]2[C@](C)(C3=C(C)[C@H](c4ccoc4)C[C@@H]3O1)[C@H](O)[C@@H]1OC[C@]3(C)[C@H](OC(C)=O)C[C@H](OC(=O)c4ccccc4)[C@@]2(C)[C@@H]13`, the inhibition entry in series [1] is “inactive”. For the same compound, the Activity entry in series [2] was “Non-Toxic”.

On to `C/C=C(\C)C(=O)O[C@H]1C[C@@H](OC(C)=O)[C@@]2(C)CO[C@H]3[C@@H](O)[C@@]4(C)C5=C(C)[C@H](C6=CCOC6=O)C[C@@H]5O[C@@H](OC)C[C@@H]4[C@]1(C)[C@@H]32`, for which the inhibition result in series [1] is “inactive”. Moreover, in series [2], the Activity result is “Non-Toxic”.

On to `CC(=O)O[C@@H]1C[C@H](OC(=O)c2ccccc2)[C@@]2(C)[C@H]3[C@@H](OC[C@]13C)[C@@H](O)[C@@]1(C)C3=C(C)[C@H](c4ccoc4)C[C@@H]3OCC[C@@H]12`, for which the inhibition result in series [1] was “inactive”. Further, the Activity entry in series [2] is “Non-Toxic”.

Turning to `C/C=C(\C)C(=O)O[C@H]1C[C@@H](OC(C)=O)[C@@]2(C(=O)OC)CO[C@H]3[C@H]4O[C@]5(C)[C@H]6C[C@H](O[C@@H]7OC=C[C@@]76O)[C@]5(O)[C@@]4(C)[C@H](C(=O)CO)[C@]1(C)[C@@H]32`, the inhibition entry in series [1] was “inactive”. In series [2], the Activity entry is given as “Non-Toxic”.

As for `COc1ccc(CCN(C)CCCC(C#N)(c2ccc(OC)c(OC)c2)C(C)C)cc1OC` (stereo not drawn) [VERAPAMIL], the “fold change (FC)” value in series [3] turned out to be 9.2.

`C/C=C(\C)C(=O)O[C@H]1C[C@@H](OC(C)=O)[C@@]2(C)CO[C@H]3[C@@H](O)[C@]4(C)[C@H](C[C@@H]5O[C@H]6CC(c7ccoc7)=C(C)[C@@]64O5)[C@]1(C)[C@@H]32`: the inhibition result in series [1] is “inactive”. Besides, in series [2], the Activity result is “Non-Toxic”.

Take `CC(=O)O[C@H]1C[C@@H](OC(C)=O)[C@@]2(C)CO[C@H]3[C@@H](O)[C@@]4(C)C5=C(C)[C@H](c6ccoc6)C[C@@H]5OCC[C@@H]4[C@]1(C)[C@@H]32`: the inhibition result in series [1] is “inactive”. The Activity result in series [2] is given as “Non-Toxic”.

As for `C/C=C(\C)C(=O)O[C@H]1C[C@@H](OC(C)=O)[C@@]2(C)CO[C@H]3[C@@H](O)[C@@]4(C)C5=C(C)[C@H](c6ccoc6)C[C@@H]5O[C@@H](OCC)C[C@@H]4[C@]1(C)[C@@H]32`, the inhibition entry in series [1] was “inactive”. In addition, the Activity result in series [2] is listed as “Non-Toxic”.

As for `C/C=C(\C)C(=O)O[C@@H]1C[C@H](OC(C)=O)[C@]23CO[C@H](CO)[C@H]2[C@](C)([C@]24O[C@@]2(C)[C@H]2C[C@@H]4O[C@@H]4O[C@H](OC)C[C@@]42O)[C@H](O)[C@@H]2OC[C@@]1(C(=O)OC)[C@H]23`, the inhibition result in series [1] was “inactive”. In series [2], the Activity entry is recorded as “Non-Toxic”.

As for `C/C=C(\C)C(=O)O[C@H]1C[C@@H](OC(C)=O)[C@@]2(C)CO[C@H]3[C@@H](O)[C@@]4(C)C5=C(C)[C@H](C6=CCOC6=O)C[C@@H]5O[C@@H](OCC)C[C@@H]4[C@]1(C)[C@@H]32`, in series [1], the inhibition entry was “inactive”. Also, the Activity result in series [2] is listed as “Non-Toxic”.

Regarding `C/C=C(\C)C(=O)O[C@H]1C[C@@H](OC(C)=O)[C@@]2(C)CO[C@H]3[C@H]4O[C@]5(C)[C@H]6C[C@H](O[C@@H]7OC=C[C@@]76O)[C@]5(O)[C@@]4(C)[C@H](C(=O)CO)[C@]1(C)[C@@H]32`, the inhibition entry in series [1] is “inactive”. Further, in series [2], the Activity entry is listed as “Non-Toxic”.

`CC(=O)O[C@H]1C[C@@H](OC(C)=O)[C@@]2(C)CO[C@H]3[C@@H](O)[C@@]4(C)C5=CC[C@@H](c6ccoc6)[C@]5(C)OCC[C@@H]4[C@]1(C)[C@@H]32`: the inhibition entry in series [1] was “inactive”. For the same compound, in series [2], the Activity result is “Non-Toxic”.

For the compound `C/C=C(\C)C(=O)O[C@H]1C[C@@H](OC(C)=O)[C@@]2(C)CO[C@H]3[C@@H](O)[C@@]4(C)C5=C(C)[C@H](c6ccoc6)C[C@@H]5O[C@H](OC)C[C@@H]4[C@]1(C)[C@@H]32`, the “fold change (FC)” value in series [3] was found to be 3.4; in series [4], 4.5. Also, the inhibition entry in series [1] is “inactive”. Moreover, the Activity entry in series [2] is “Non-Toxic”.

As for `C/C=C(\C)C(=O)O[C@@H]1C[C@H](OC(C)=O)[C@]23CO[C@H](CO)[C@H]2[C@](C)([C@]24O[C@@]2(C)[C@H]2C[C@@H]4O[C@@H]4O[C@H](OCC)C[C@@]42O)[C@H](O)[C@@H]2OC[C@@]1(C(=O)OC)[C@H]23`, the inhibition result in series [1] is “inactive”. In addition, the Activity entry in series [2] was “Non-Toxic”.

Regarding `CC(=O)O[C@H]1C[C@@H](OC(C)=O)[C@@]2(C)CO[C@H]3[C@@H](O)[C@@]4(C)C5=CC[C@@H](c6ccoc6)[C@]5(C)CC[C@@H]4[C@]1(C)[C@@H]32` [DIACETYLVILASININ], the “fold change (FC)” value in series [3] was found to be 7.8; in series [4] it was 18.3. The inhibition result in series [1] is “inactive”. Also, in series [2], the Activity result is on record as “Non-Toxic”.

With `C/C=C(\C)C(=O)O[C@@H]1C[C@H](OC(C)=O)[C@]23CO[C@H](CO)[C@H]2[C@](C)([C@]24O[C@@]2(C)[C@H]2C[C@@H]4O[C@@H]4O[C@H](OC)C[C@]42O)[C@H](O)[C@@H]2OC[C@@]1(C(=O)OC)[C@H]23`, in series [1], the inhibition entry was “inactive”. In series [2], the Activity entry was “Non-Toxic”.

On to `C/C=C(\C)C(=O)O[C@H]1C[C@@H](OC(C)=O)[C@@]2(C)CO[C@H]3[C@@H](O)[C@@]4(C)C5=CC[C@@H](c6ccoc6)[C@]5(C)OCC[C@@H]4[C@]1(C)[C@@H]32`, for which the inhibition result in series [1] was “inactive”. Besides, the Activity entry in series [2] is “Non-Toxic”.
